# Results as given in patent US4431650A, “Esters of benzofuranyl acids” (Union Carbide Corporation, priority 1980, dated 1984).
# Experiments:
# Assay type in all cases: in vivo
# Soybean = assay: Phytotoxicity, soybean; set-up: key: 1 = No plant injury at a dose of 2500 ppm; conditions: rating; dose of 2500 ppm
# [1] = tested on: house flies (Musca domestica, L.); assay: Fly Bait Test; conditions: po, 24 h, adult flies, bait in 10 percent sugar solution, twenty four hours, read-out: LD50 HF
# Method: (§1) Suspensions of the test compounds were prepared by dissolving one gram of compound in 50 milliliters of acetone in which had been dissolved 0.1 gram (10 percent of the weight of compound) of an alkylphenoxy polyethoxyethanol surfactant, as an emulsifying or dispersing agent. The resulting solution was mixed into 150 milliliters of water to give roughly 200 milliliters of a suspension containing the compound in finely divided form. The thus-prepared stock suspension contained 0.5 percent by weight of compound. The concentrations in parts per million by weight employed in the tests described hereinbelow were obtained by appropriate dilutions of the stock suspension with water. The test procedures were as follows:
# Four to six day old adult house flies (Musca domestica, L.), reared according to the specifications of the Chemical Specialities Manufacturing Association (Blue Book, McNair-Dorland Co., N.Y. 1954; pages 243-244, 261) under controlled conditions of 80± F. and 50±5 percent relative humidity, were the test insects. The flies were immobilized by anesthetizing with carbon dioxide and twenty five immobilized individuals,males and females, were transferred to a cage consisting of a standard food strainer about five inches in diameter which was inverted over a wrapping-paper-covered surface. […]
# Cott. = assay: Phytotoxicity, cotton; set-up: key: 1 = No plant injury at a dose of 2500 ppm; conditions: rating; dose of 2500 ppm
# [2] = tested on: southern armyworm (Spodoptera eridania, (Cram.)); assay: Southern Armyworm Leaf Spray Bait Test; conditions: 72 h, larvae on sprayed bean leaves, held three days, read-out: LD50 SAW
# Method: as §1
# Larvae of the southern armyworm (Spodoptera eridania, (Cram.)), reared on Tendergreen bean plants at a temperature of 80°±5° F. and a relative humidity of 50± percent, constituted the test insects.
# The test compounds were formulated by diluting the stock suspension with water to give a suspension containing 500 parts of test compound per million parts of final formulation. Potted Tendergreen bean plants of standard height and age were placed on a revolving turntable and sprayed with 100-110 milliliter of test compound formulation by use of a DeVilbiss spray gun set at 10 psig air pressure. […] Percent mortality was recorded for various concentration levels. […]
# Corn = assay: Phytotoxicity, corn; set-up: key: 1 = No plant injury at a dose of 2500 ppm; conditions: rating; dose of 2500 ppm
# [3] = tested on: bean aphid (Aphis fabae Scop.); assay: Bean Aphid Foliage Spray Test; conditions: foliar, foliage spray on nasturtium plants, adults and nymphs, mortality after 24 hour holding period, read-out: LD50 Aphid
# Method: as §1
# Adults and nymphal stages of the bean aphid (Aphis fabae Scop.) reared on potted dwarf nasturtium plants at 65°-70° F. and 50-70 percent relative humidity, constituted the test insects. For testing purposes, the number of aphids per pot was standardized to 100-150 by trimming plants containing excess aphids. […]
# The potted plants (one pot per compound tested) infested with 100-150 aphids, were placed on a revolving turntable and sprayed with 100-110 milliliters of test compound formulation by use of a DeVilbiss spray gun set at 40 psig. air pressure. […] Percent mortality was recorded for various concentration levels. […]
# [4] = tested on: two-spotted mite (Tetranychus urticae Koch); assay: Mite Foliage Spray Test; conditions: foliar, 144 h, foliage spray on bean plants, adults and nymphs, mortality count of motile forms after six days, read-out: LD50 Mite
# Method: as §1
# Adults and nymphal stage of the two-spotted mite (Tetranychus urticae Koch), reared on Tendergreen bean plants at 80±5 percent relative humidity, were the test organisms. Infested leaves from a stock culture were placed on the primary leaves of two bean plants six to eight inches in height, growing in a two-and-a-half inch clay pot. 150-200 Mites, a sufficient number for testing, transferred from the excised leaves to the fresh plants in a period of twenty four hours. Following the twenty four hour transfer period, the excised leaves were removed from the infested plants. […]
# [5] = tested on: Mexican bean beetle (Epilachna variestis, Muls.); assay: Mexican Bean Beetle Leaf Spray Test; conditions: 72 h, read-out: LD50 MBB
# Method: as §1
# Fourth instar larvae of the Mexican bean beetle (Epilachna variestis, Muls.), reared on Tendergreen bean plants at a temperature of 80°±5° F. and 50±5 percent relative humidity, were the test insects.
# The test compounds were formulated by diluting the stock suspension with water to give a suspension containing 500 parts of test compound per million parts of final formulation. Tendergreen bean plants of standard height and age were placed on a revolving turntable and sprayed with 100-110 milliliters of test compound formulation by use of a DeVilbiss spray gun set at 10 psig air pressure. This application, which lasted 25 seconds, was sufficient to wet plants to run-off. […]
SMILES,Phytotoxicity Soybean (Soybean),LC50 [1] [µg/mL],Phytotoxicity Cott. (Cott.),LC50 [2] [µg/mL],Phytotoxicity Corn (Corn),LC50 [3] [µg/mL],LC50 [4] [µg/mL],LC50 [5] [µg/mL]
C#CC(OC(=O)C(c1cc2ccccc2o1)C(C)C)c1cccc(Oc2ccccc2)c1 (stereo not shown),1,~180,1,52,1,0.8,200,5
CC(C)C(C(=O)OC(C#N)c1cccc(Oc2ccccc2)c1)c1cc2ccccc2o1 (stereo not shown),1,23,1,~45,1,~0.7,210,11
